Reference: ChEMBL document CHEMBL1949559, “Discovery of a new class of potent prolylcarboxypeptidase inhibitors derived from alanine” (Bioorg Med Chem Lett, 2012)

Tests used:
[1] = target: T1, Lysosomal Pro-X carboxypeptidase (Mus musculus, UniProt Q7TMR0); experiment: Inhibition of PrCP-mediated angiotensin3 cleavage in mouse plasma using exogenous angiotensin III as substrate for 8 mins by LC/MS analysis
T1 sequence (Q7TMR0 whole entry): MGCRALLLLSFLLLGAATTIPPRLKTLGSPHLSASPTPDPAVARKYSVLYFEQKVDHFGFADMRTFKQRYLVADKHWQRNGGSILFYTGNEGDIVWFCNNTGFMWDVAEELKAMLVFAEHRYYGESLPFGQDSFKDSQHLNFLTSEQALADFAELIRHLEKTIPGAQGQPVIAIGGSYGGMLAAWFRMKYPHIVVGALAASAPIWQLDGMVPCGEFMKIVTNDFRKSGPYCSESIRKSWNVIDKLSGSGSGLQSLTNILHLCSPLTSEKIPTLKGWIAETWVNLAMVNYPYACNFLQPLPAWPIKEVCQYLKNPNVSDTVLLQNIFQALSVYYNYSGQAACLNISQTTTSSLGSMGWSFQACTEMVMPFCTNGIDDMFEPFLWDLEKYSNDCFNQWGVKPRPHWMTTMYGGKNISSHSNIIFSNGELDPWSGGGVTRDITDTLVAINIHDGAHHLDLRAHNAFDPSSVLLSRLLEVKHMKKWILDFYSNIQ

[2] = target: T2, Lysosomal Pro-X carboxypeptidase (Homo sapiens) (UniProt P42785); experiment: Inhibition of human recombinant PrCP using Mca-Ala-Pro-Lys(Dnp)-OH as substrate at 5 uM for 30 mins by continuous fluorimetric assay
T2 sequence (whole entry): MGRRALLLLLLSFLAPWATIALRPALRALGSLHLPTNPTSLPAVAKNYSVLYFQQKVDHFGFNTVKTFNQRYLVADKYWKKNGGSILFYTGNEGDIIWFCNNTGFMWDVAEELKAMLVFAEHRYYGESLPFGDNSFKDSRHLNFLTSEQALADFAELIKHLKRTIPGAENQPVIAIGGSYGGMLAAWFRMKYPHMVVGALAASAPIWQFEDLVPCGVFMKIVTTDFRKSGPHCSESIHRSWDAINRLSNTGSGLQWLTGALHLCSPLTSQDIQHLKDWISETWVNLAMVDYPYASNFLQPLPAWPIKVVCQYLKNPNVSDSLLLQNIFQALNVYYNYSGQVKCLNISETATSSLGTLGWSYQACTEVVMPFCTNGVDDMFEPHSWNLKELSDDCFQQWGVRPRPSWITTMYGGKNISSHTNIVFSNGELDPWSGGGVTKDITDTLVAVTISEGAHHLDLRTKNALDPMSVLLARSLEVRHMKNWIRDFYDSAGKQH

[3] = target: T2, Lysosomal Pro-X carboxypeptidase (Homo sapiens); experiment: Inhibition of human recombinant PrCP using Mca-Ala-Pro-Lys(Dnp)-OH as substrate at 0.5 uM for 30 mins by continuous fluorimetric assay
[4] = target: T1, Lysosomal Pro-X carboxypeptidase; experiment: Inhibition of mouse recombinant PrCP using Mca-Ala-Pro-Lys(Dnp)-OH as substrate for 30 mins by continuous fluorimetric assay
[5] = Oral bioavailability in mouse at 2 mg/kg; type: ADME, organism-based; conditions: in vivo
[6] = Clearance in mouse at 1 mg/kg, iv and 2 mg/kg, po; type: ADME, organism-based; conditions: in vivo
[7] = Volume of distribution at steady state in mouse at 1 mg/kg, iv and 2 mg/kg, po; type: ADME, organism-based; conditions: in vivo, read-out: Vdss
[8] = Half life in mouse at 1 mg/kg, iv and 2 mg/kg, po; type: ADME, organism-based; conditions: in vivo
[9] = test system: Mus musculus; experiment: Dose normalized AUC in mouse at 2 mg/kg, po; type: ADME, organism-based; parameters: dose 2 mg/kg, route oral; conditions: in vivo
[10] = target: T3, Lysosomal Pro-X carboxypeptidase (Homo sapiens, UniProt P42785); experiment: Inhibition of human recombinant PrCP using Mca-Ala-Pro-Lys(Dnp)-OH as substrate for 30 mins by continuous fluorimetric assay
T3 sequence (P42785 whole entry): T2 sequence (whole entry)

Work on C[C@H](NC(=O)[C@@H](N)Cc1cccc(C#N)c1)c1nc2cc(Cl)c(Cl)cc2[nH]1 yielded an IC50 [1] of 5000 nM.

Work on C[C@H](NC(=O)[C@@H](NC(=O)C(C)(C)O)[C@@H](C)c1ccc(-c2cn[nH]c2)cc1)c1nc2cc(Cl)c(Cl)cc2[nH]1 yielded an IC50 [1] of 78 nM.

O=C(CCCOc1ccccc1)N[C@@H](Cc1ccccc1)c1ncc(-c2ccc(F)cc2)[nH]1 gave an inhibition [2] of 13% and an inhibition [3] of 3%.

Compound C[C@H](NC(=O)[C@@H](NC(=O)C(C)(C)N)[C@@H](C)c1ccc(OCC(F)(F)F)cc1)c1nc2cc(Cl)c(Cl)cc2[nH]1 has an IC50 [1] of 92 nM.

C[C@H](NC(=O)[C@@H](NC(=O)C(C)(C)N)[C@@H](C)c1ccc(-c2ccccc2)cc1)c1nc2cc(Cl)c(Cl)cc2[nH]1 showed an IC50 [4] of 0.039 nM, a bioavailability [5] of 17% and a clearance [6] of 3.48 L/h/kg. It also gave a Vd [7] of 14 L/kg, a half-life [8] of 4 h and an AUC/dose [9] of 0.52 µM·kg·h/mg. The IC50 [1] was 22 nM.

For C[C@H](NC(=O)[C@H](Cc1ccc(-c2ccccc2)cc1)NCC(C)(C)N)c1nc2cc(Cl)c(Cl)cc2[nH]1, the IC50 [1] was 585 nM.

For O=C(CCc1ccc(-c2ccccc2)cc1)NCc1nc2cc(Cl)c(Cl)cc2[nH]1, the IC50 [10] was > 10000 nM.

In the case of COc1cccc(-c2cnc(C(NC(=O)CCCOc3ccccc3)C3CCCCC3)[nH]2)c1 (configuration not stated), the inhibition [2] is reported as 31% and the inhibition [3] is reported as 7%.

With C[C@H](NC(=O)CCN1CCN(c2cccc(F)c2)CC1)c1nc2cc(Cl)c(Cl)cc2[nH]1 the IC50 [1] was 5000 nM.

In the case of Clc1cc2nc(-c3cccnc3NCCc3ccc(-c4ccccc4)cc3)[nH]c2cc1Cl, the IC50 [10] is reported as > 10000 nM.

For Clc1cc2nc(-c3cccnc3OCCc3ccc(-c4ccccc4)cc3)[nH]c2cc1Cl, the IC50 [10] was > 10000 nM.

In the case of CC(C)(NC(=O)CCN1CCC(c2ccccc2)CC1)c1nc2cc(Cl)c(Cl)cc2[nH]1, the IC50 [10] is reported as 181 nM.

COc1cccc(-c2cnc([C@H](C)NC(=O)CCCOc3ccccc3)[nH]2)c1 showed an inhibition [2] of 90% and an inhibition [3] of 65%.

C[C@H](NC(=O)[C@@H](NC(=O)C(C)(C)O)[C@@H](C)c1ccc(OCC(F)(F)F)cc1)c1nc2cc(Cl)c(Cl)cc2[nH]1 showed an IC50 [1] of 45 nM.

Compound C[C@H](NC(=O)CCN1CCN(c2ccc(F)cc2)CC1)c1nc2cc(Cl)c(Cl)cc2[nH]1 has an IC50 [1] of 20000 nM.

Work on C[C@H](NC(=O)[C@H](Cc1cccc(C#N)c1)NC(=O)C(C)(C)N)c1nc2cc(Cl)c(Cl)cc2[nH]1 yielded an IC50 [4] of 128 nM and an IC50 [1] of 1600 nM.

In the case of CC(C)(C)OC(=O)N[C@@H](Cc1ccc(-c2ccccc2)cc1)C(=O)N1CCCC[C@H]1c1nc2cc(Cl)c(Cl)cc2[nH]1, the IC50 [10] is reported as > 10000 nM.
